In US12077503B2, “Substituted cyclic amides and their use as herbicides” (FMC CORPORATION, priority 2015, dated 2024):
Read-outs that look alike come from different tables or passages of the source.

Assays:
Type in all cases: in vivo
[1] = system: giant foxtail (Setaria faberii); experiment: Test A preemergence; conditions: Setaria faberi, pre-emergence, 240 h; for pest or weed control at 125 g/ha: 125 g ai/ha, Preemergence, visual injury rating after approximately 10 d, read-out: Foxtail, Giant plant response rating (0 to 100 scale, 0 is no effect, 100 is complete control); for pest or weed control at 500 g/ha: 500 g ai/ha, preemergence, visual injury rating about 10 d after treatment, 0 to 100 scale (0 no effect, 100 complete control), read-out: Foxtail, Giant plant response rating
Procedure, shortened: (§1)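 Seeds sprayed preemergence with a directed soil spray, or plants at 2 to 10 cm height and one- to two-leaf stage sprayed postemergence, with test chemicals in a non-phytotoxic solvent mixture containing surfactant, in loam soil–sand blend. Injury rated visually against untreated controls after about 10 d in greenhouse, 0 (no effect) to 100 (complete control).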

[2] = system: ragweed (common ragweed, Ambrosia elatior); experiment: Test A preemergence; conditions: Ambrosia artemisiifolia, pre-emergence, 240 h; for pest or weed control at 125 g/ha: 125 g ai/ha, Preemergence, visual injury rating after approximately 10 d, read-out: Ragweed plant response rating (0 to 100 scale, 0 is no effect, 100 is complete control); for pest or weed control at 500 g/ha: 500 g ai/ha, preemergence, visual injury rating about 10 d after treatment, 0 to 100 scale (0 no effect, 100 complete control), read-out: Ragweed plant response rating
Procedure, shortened: as §1

[3] = system: barnyardgrass (Echinochloa crus-galli); experiment: Test A preemergence; conditions: Echinochloa crus-galli, pre-emergence, 240 h; for pest or weed control at 125 g/ha: 125 g ai/ha, Preemergence, visual injury rating after approximately 10 d, read-out: Barnyardgrass plant response rating (0 to 100 scale, 0 is no effect, 100 is complete control); for pest or weed control at 500 g/ha: 500 g ai/ha, preemergence, visual injury rating about 10 d after treatment, 0 to 100 scale (0 no effect, 100 complete control), read-out: Barnyardgrass plant response rating
Procedure, shortened: as §1

[4] = system: pigweed (Amaranthus retroflexus); experiment: Test A preemergence; conditions: Amaranthus retroflexus, pre-emergence, 240 h; for pest or weed control at 125 g/ha: 125 g ai/ha, Preemergence, visual injury rating after approximately 10 d, read-out: Pigweed plant response rating (0 to 100 scale, 0 is no effect, 100 is complete control); for pest or weed control at 500 g/ha: 500 g ai/ha, preemergence, visual injury rating about 10 d after treatment, 0 to 100 scale (0 no effect, 100 complete control), read-out: Pigweed plant response rating
[5] = system: ryegrass, Italian (Italian ryegrass, Lolium multiflorum); experiment: Test A preemergence; conditions: Lolium multiflorum, pre-emergence, 240 h; for pest or weed control at 125 g/ha: 125 g ai/ha, Preemergence, visual injury rating after approximately 10 d, read-out: Ryegrass, Italian plant response rating (0 to 100 scale, 0 is no effect, 100 is complete control); for pest or weed control at 500 g/ha: 500 g ai/ha, preemergence, visual injury rating about 10 d after treatment, 0 to 100 scale (0 no effect, 100 complete control), read-out: Ryegrass, Italian plant response rating
Procedure, shortened: as §1

[6] = system: Kochia (Kochia scoparia); experiment: Test A preemergence; conditions: Bassia scoparia, pre-emergence, 240 h; for pest or weed control at 125 g/ha: 125 g ai/ha, Preemergence, visual injury rating after approximately 10 d, read-out: Kochia plant response rating (0 to 100 scale, 0 is no effect, 100 is complete control); for pest or weed control at 500 g/ha: 500 g ai/ha, preemergence, visual injury rating about 10 d after treatment, 0 to 100 scale (0 no effect, 100 complete control), read-out: Kochia plant response rating
Procedure, shortened: as §1

[7] = system: barnyardgrass (Echinochloa crus-galli); experiment: Test B flooded paddy test; conditions: Echinochloa crus-galli, Flood, 250 g ai/ha, read-out: Barnyardgrass plant response rating
Procedure, shortened: (§2)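 Evaluation by eye, against controls, occurred 13–15 d post-treatment in a greenhouse, using a 0 (no effect) to 100 (complete control) scale. Application was into the paddy water, 3 cm deep over the soil, on 2-leaf plants.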

[8] = system: rice (Oryra sativa); experiment: Test B flooded paddy test; conditions: Oryza sativa, Flood, 250 g ai/ha, read-out: Rice plant response rating
Procedure, shortened: as §2

[9] = system: sedge, umbrella (small-flower umbrella sedge, Cyperus difformis); experiment: Test B flooded paddy test; conditions: Cyperus difformis, Flood, 250 g ai/ha, read-out: Sedge, Umbrella plant response rating
Procedure, shortened: as §2

[10] = system: ducksalad (Heteranthera limosa); experiment: Test B flooded paddy test; conditions: Heteranthera limosa, Flood, 250 g ai/ha, read-out: Ducksalad plant response rating
Procedure, shortened: as §2

[11] = system: giant foxtail (Setaria faberii); experiment: Test A postemergence; conditions: Setaria faberi, post-emergence, 240 h, read-out: Plant response rating, Foxtail, Giant; for pest or weed control at 125 g/ha: 125 g ai/ha, Postemergence, visual injury after approximately 10 d, 0 to 100 scale where 0 is no effect and 100 is complete control
Procedure, shortened: as §1

[12] = system: ragweed (common ragweed, Ambrosia elatior); experiment: Test A postemergence; conditions: Ambrosia artemisiifolia, post-emergence, 240 h, read-out: Plant response rating, Ragweed; for pest or weed control at 125 g/ha: 125 g ai/ha, Postemergence, visual injury after approximately 10 d, 0 to 100 scale where 0 is no effect and 100 is complete control
Procedure, shortened: as §1

[13] = system: blackgrass (Alopecurus myosuroides); experiment: Test A postemergence; conditions: Alopecurus myosuroides, post-emergence, 240 h, read-out: Plant response rating, Blackgrass; for pest or weed control at 125 g/ha: 125 g ai/ha, Postemergence, visual injury after approximately 10 d, 0 to 100 scale where 0 is no effect and 100 is complete control
Procedure, shortened: as §1

[14] = system: barnyardgrass (Echinochloa crus-galli); experiment: Test A postemergence; conditions: Echinochloa crus-galli, post-emergence, 240 h, read-out: Plant response rating, Barnyardgrass; for pest or weed control at 125 g/ha: 125 g ai/ha, Postemergence, visual injury after approximately 10 d, 0 to 100 scale where 0 is no effect and 100 is complete control
Procedure, shortened: as §1

[15] = system: corn (Zea mays); experiment: Test A postemergence; conditions: Zea mays, post-emergence, 240 h; for Corn plant response rating (crop injury, 0 = no effect, 100 = complete kill) at 125 g/ha: 125 g ai/ha, Postemergence, visual injury after approximately 10 d, 0 to 100 scale where 0 is no effect and 100 is complete control
Procedure, shortened: as §1

[16] = system: wheat (Triticum aestivum); experiment: Test A postemergence; conditions: Triticum aestivum, post-emergence, 240 h, read-out: Plant response rating, Wheat; for plant injury at 125 g/ha: 125 g ai/ha, Postemergence, visual injury after approximately 10 d, 0 to 100 scale where 0 is no effect and 100 is complete control
Procedure, shortened: as §1

[17] = system: Galium (catchweed bedstraw, Galium aparine); experiment: Test A postemergence; conditions: Galium, post-emergence, 240 h, read-out: Plant response rating, Galium; for pest or weed control at 125 g/ha: 125 g ai/ha, Postemergence, visual injury after approximately 10 d, 0 to 100 scale where 0 is no effect and 100 is complete control
Procedure, shortened: as §1

[18] = system: pigweed (Amaranthus retroflexus); experiment: Test A postemergence; conditions: Amaranthus retroflexus, post-emergence, 240 h, read-out: Plant response rating, Pigweed; for pest or weed control at 125 g/ha: 125 g ai/ha, Postemergence, visual injury after approximately 10 d, 0 to 100 scale where 0 is no effect and 100 is complete control
Procedure, shortened: as §1

[19] = system: ryegrass, Italian (Italian ryegrass, Lolium multiflorum); experiment: Test A postemergence; conditions: Lolium multiflorum, post-emergence, 240 h, read-out: Plant response rating, Ryegrass, Italian; for pest or weed control at 125 g/ha: 125 g ai/ha, Postemergence, visual injury after approximately 10 d, 0 to 100 scale where 0 is no effect and 100 is complete control
Procedure, shortened: as §1

[20] = system: Kochia (Kochia scoparia); experiment: Test A postemergence; conditions: Bassia scoparia, post-emergence, 240 h, read-out: Plant response rating, Kochia; for pest or weed control at 125 g/ha: 125 g ai/ha, Postemergence, visual injury after approximately 10 d, 0 to 100 scale where 0 is no effect and 100 is complete control
Procedure, shortened: as §1

[21] = scale of 0 to 100 where 0 is no effect and 100 is complete control
[22] = 0 to 100 scale where 0 is no effect and 100 is complete control
[23] = 500 g ai/ha, postemergence, visual injury, 0 to 100 scale (0 no effect, 100 complete control), approx. 10 d

Structure (SMILES)	pest or weed control at 125 g/ha [1] [%]	pest or weed control at 500 g/ha [1] [%]	pest or weed control at 125 g/ha [2] [%]	pest or weed control at 500 g/ha [2] [%]	pest or weed control at 125 g/ha [3] [%]	pest or weed control at 500 g/ha [3] [%]	pest or weed control at 125 g/ha [4] [%]	pest or weed control at 500 g/ha [4] [%]	pest or weed control at 125 g/ha [5] [%]	pest or weed control at 500 g/ha [5] [%]	pest or weed control at 125 g/ha [6] [%]	pest or weed control at 500 g/ha [6] [%]	pest or weed control at 125 g/ha [11] [%]	pest or weed control at 125 g/ha [12] [%]	pest or weed control at 125 g/ha [13] [%]	pest or weed control at 125 g/ha [14] [%]	Corn plant response rating (crop injury, 0 = no effect, 100 = complete kill) at 125 g/ha [15] [%]	plant injury at 125 g/ha [16] [%]	pest or weed control at 125 g/ha [17] [%]	pest or weed control at 125 g/ha [18] [%]	other results
CCOc1cccc([C@H]2CN(C)C(=O)[C@@H]2C(=O)Nc2ccccc2F)c1 [Compound 955]	100	100	0	30	100	100	0	0	70	60	30	70	80	0	0	90	0	0	20	0	pest or weed control at 250 g/ha [7, 21]: 70%; pest or weed control at 250 g/ha [8, 21]: 0%; pest or weed control at 250 g/ha [9, 21]: 0%; pest or weed control at 250 g/ha [10, 21]: 90%; pest or weed control at 125 g/ha [19]: 30%; pest or weed control at 125 g/ha [20]: 20%
CSc1ccccc1NC(=O)[C@H]1C(=O)N(C)C[C@@H]1c1ccc(C)c(Cl)c1 [Compound 1015]	90	90	0	50	90	90	0	40	40	90	0	60	80	0	0	90	70	0	40	30	pest or weed control at 250 g/ha [7, 22]: 95%; pest or weed control at 250 g/ha [8, 22]: 40%; pest or weed control at 250 g/ha [9, 22]: 35%; pest or weed control at 250 g/ha [10, 22]: 90%; pest or weed control at 500 g/ha [11, 23]: 80%; pest or weed control at 500 g/ha [12, 23]: 40%; pest or weed control at 500 g/ha [13, 23]: 50%; pest or weed control at 500 g/ha [14, 23]: 90%; Corn plant response rating (crop injury, 0 = no effect, 100 = complete kill) at 500 g/ha [15, 23]: 90%; plant injury at 500 g/ha [16, 23]: 60%; pest or weed control at 500 g/ha [17, 23]: 70%; pest or weed control at 500 g/ha [18, 23]: 50%; pest or weed control at 125 g/ha [19]: 30%; pest or weed control at 500 g/ha [19, 23]: 50%; pest or weed control at 125 g/ha [20]: 0%; pest or weed control at 500 g/ha [20, 23]: 50%
